In patent US10302644B2, “Compositions and methods for treating multiple myeloma” (Dana-Farber Cancer Institute, Inc., priority 2014, dated 2019):

What was measured:
[1] = system: MM cells; experiment: Growth inhibition assay (MTT) / viable cell count (Trypan-blue); format: cell-based
Experimental: Cell growth was assessed by measuring 3-(4,5-dimethylthiazol-2-yl)-2,5-diphenyl […] bromide (MTT, Chemicon International, Temecula, Calif.) dye absorbance. Cells were pulsed with 10 μl of 5 mg/ml MTT to each well for the last 4 h of 48 h and/or 72 h cultures, followed by 100 μl isopropanol containing 0.04N HCl. Absorbance was measured at 570/630 nm using a spectrophotometer (Molecular Devices Corp., Sunnyvale Calif.).

[2] = system: p53; experiment: Immunoblotting of p53 and phosphorylated p53 in MM cells; format: cell-based
Experimental: (§1) MM cells were harvested and lysed using RIPA-lysis buffer (Boston Bioproducts, Ashland, Mass.) containing 5 mM EDTA, 5 mM NaF, 2 mM Na3VO4, 1 mM PMSF, 5 μg/ml leupeptin, and 5 μg/ml aprotinin. Nuclear proteins were extracted using “Nuclear Extraction Kit” (Affimetrix). After the determination of protein concentration using DC protein assay (Bio-Rad, Hercules, Calif.), β-mercaptoethanol (-ME) was added to the whole-cell lysates to a 2% final concentration. The whole cell lysates or nuclear extracts were subjected to SDS-PAGE, transferred to nitrocellulose membranes (Bio-Rad, Hercules, Calif.) or polyvinylidene fluoride membranes (Millipore, Billerica, Mass.), and immunoblotted with indicated Abs. Silver staining was carried out using “SilverQuest Staining Kit®” (Invitrogen), according to manufacturer's protocol.

[3] = system: p53; experiment: p53 DNA binding activity assay; format: cell-based; details: MM.1S and H929 cells, 48 h
Experimental: E2F1 DNA binding activity was assessed by electrophoretic mobility shift assay (EMSA) using “EMSA Gel Shift Kit®” from Affimetrix (Santa Clara, Calif.), and p53 DNA binding activity was performed using “p53 Transcription Factor Assay Kit®” from Cayman Chemical (Ann Arbor, Mich.). Experiments were carried out according to manufacturer's protocols.

[4] = system: Chk1, ATM, ATR, Chk2; experiment: Immunoblotting of DNA damage kinase phosphorylation; format: cell-based; details: MM.1S cells, 48 h
Experimental: as §1

[5] = system: LC3-II, Bim, PARP, MDM2, XIAP, cIAP, p-p70S6K; experiment: Immunoblotting/qPCR of autophagy and apoptosis proteins in MM cells; format: cell-based; details: MM.1S cells, 2.5 μM, 48 h
Experimental: as §1
(§2) RNA was extracted using Trizol (Invitrogen) and quantified by a Nanodrop spectrophotometer (Labtech). Specifically, 5×10^6 cells were pelleted, washed with cold PBS, and resuspended in 1 mL Trizol. They were then incubated with 1-Bromo-3-chloropropane (Sigma), washed first with Isopropyl alcohol and then with 75% Ethanol, and resuspended in Nuclease Free-water (Invitrogen). After quantification, 2000 ng of RNA was used to synthesize cDNA via the Superscript II First strand synthesis Kit (Invitrogen), according to the manufacturer's instructions. To evaluate the expression levels of TP53RK, BCL2L11, MYC, Bim, E2F1, TP53, IKZF1, IKZF3, RRM1, p18CDKN2C, PSMB5, PSMB7, PSMA3 and GAPDH, quantitative real time PCR (QRT-PCR) was performed using SYBR GREEN PCR Master Mix (Applied Biosystem), after optimization of the primer conditions. cDNAs were diluted 1:100 or 1:1000 and amplified in a 20 μL reaction. Primers were used at 200 nM or 400 nM concentration. Thermal cycling conditions were: 10 minutes at 95° C., 40 cycles at 95° C. for 15 seconds, followed by 1 minute at 60° C. Real-time quantitative PCR was performed on ABI Prism 7300 Sequence Detection System (Applied Biosystems). Data were analyzed using the delta delta Ct method. GAPDH was used as an invariant control.

[6] = system: E2F1; experiment: E2F1 DNA binding activity (EMSA), protein and mRNA; format: cell-based; details: MM cells
Experimental: MM cells were harvested and lysed using RIPA-lysis buffer (Boston Bioproducts, Ashland, Mass.) containing 5 mM EDTA, 5 mM NaF, 2 mM Na3VO4, 1 mM PMSF, 5 μg/ml leupeptin, and 5 μg/ml aprotinin. Nuclear proteins were extracted using “Nuclear Extraction Kit” (Affimetrix). After the determination of protein concentration using DC protein assay (Bio-Rad, Hercules, Calif.), β-mercaptoethanol (-ME) was added to the whole-cell lysates to a 2% final concentration. […]
RNA was extracted using Trizol (Invitrogen) and quantified by a Nanodrop spectrophotometer (Labtech). […] After quantification, 2000 ng of RNA was used to synthesize cDNA via the Superscript II First strand synthesis Kit (Invitrogen), according to the manufacturer's instructions. To evaluate the expression levels of TP53RK, BCL2L11, MYC, Bim, E2F1, TP53, IKZF1, IKZF3, RRM1, p18CDKN2C, PSMB5, PSMB7, PSMA3 and GAPDH, quantitative real time PCR (QRT-PCR) was performed using SYBR GREEN PCR Master Mix (Applied Biosystem), after optimization of the primer conditions. cDNAs were diluted 1:100 or 1:1000 and amplified in a 20 μL reaction. […] Real-time quantitative PCR was performed on ABI Prism 7300 Sequence Detection System (Applied Biosystems). Data were analyzed using the delta delta Ct method. […]

[7] = system: RRM1, p18CDKN2C; experiment: RRM1 and p18CDKN2C expression (RT-qPCR, Western blot); format: cell-based; details: H929 cells
Experimental: as §1, §2

[8] = system: hTERT; experiment: hTERT expression and telomerase activity (TeloTAGGG Telomerase PCR ELISA); format: cell-based; details: MM.1S cells and H929 cells
Experimental: as §1
Telomerase activity in MM.1S and H929 cells was assessed by “TeloTAGGG Telomerase PCR ELISA®” from Roche Applied Science (Mannheim, Germany).

[9] = system: p53 target genes; experiment: GEP analysis of patient MM cells before and after lenalidomide treatment; format: in vivo, human; details: patient MM cells treated with Len; *p < 0.05
Text: Expression data for plasma cells from healthy donors, monoclonal gammopathy of undetermined significance (MGUS), and smoldering myeloma (SMM) were derived from GSE5900 dataset, while expression data from normal plasma cells and 65 MM patients were obtained from GSE4452 dataset, using expression profiling on Affymetrix GeneChip (t test, unpaired, equal variance). […] Data were then normalized and analyzed using D-chip software, seeking statistically significant differences among groups or in p53-target gene expression. Statistical significance was determined by Student t test. The minimal level of significance was P<0.05. […] Gene set enrichment analysis (GSEA) was performed as previously described (2) (GSEA v2.0 at http://www.broad.mit.edu/gsea) using gene set as permutation type, as well as 1,000 permutations and signal to noise as metrics for ranking genes.

[10] = system: hTERT; experiment: Comparative hTERT expression analysis in matched MM patient samples (GSE8546); format: in vivo, human; details: matched samples before and after Len, GSE8546 dataset

## Nc1cccc2c1CN(C1CCC(=O)NC1=O)C2=O (stereo not drawn) [Len, lenalidomide]
[1]; H929 cells, 48 h
  drug-triggered growth inhibition in kinase-dead D163A TP53RK transfectants: abrogated
[1]; MM.1S and H929 cells with wt-p53 versus cell lines with mutant p53
  sensitivity of MM cell lines to drug: more sensitive
[1]; OPM2 cells (mutant p53) and H929 cells (wt-p53)
  drug-triggered cell death after CRBN knock-down: only partially abrogates
[2]; MM.1S cells, 2.5 μM, 48 h
  p53 phosphorylation at Ser20 and Ser37: no change
  phosphorylated (p-Ser15)-p53 and p53 levels: downregulated
[2]; MM.1S cells, Len or Pom 2.5 μM with Nutlin-3a 0.5 μM, 48 h
  Nut3-induced upregulation of p-p53 and p53: inhibited
[2]; nuclear extracts from MM.1S and H929 cell lines, patient MM cells
  p-p53/p53 downregulation: further confirmed
[3]
  p53 activity (p53 DNA binding): block
[4]
  phosphorylation of ATM, ATR or Chk2: not
  phosphorylation of Chk1: inhibited
[5]
  LC3-II level: upregulation
[6]
  E2F1: increases
[7]
  RRM1 expression: downregulate
  p18CDKN2C expression: upregulate
[8]
  hTERT expression: significantly inhibited
  telomerase (hTERT) activity: significantly inhibited
[9]
  BID expression change: ↓
  CCNA1 expression change: ↓
  CCNA2 expression change: ↓
  CCNE2 expression change: ↓
  CCNG1 expression change: ↓
  CCR5 expression change: ↓
  CDC25B expression change: ↑
  CDKN3 expression change: ↓
  CTSL2 expression change: ↑
  CUL1 expression change: ↓
  DDX3X expression change: ↑*
  DDX11 expression change: ↓
  DLEC1 expression change: ↓
  FGFR3 expression change: ↓
  HLA-C expression change: ↑
  ILR6 expression change: ↓
  ITM2B expression change: ↑*
  JUND expression change: ↓
  KRAS expression change: ↑*
  LAPTM5 expression change: ↑
  MAP2K6 expression change: ↓*
  MKI67 expression change: ↓
  MSX1 expression change: ↓
  MYBL2 expression change: ↓*
  MYC expression change: ↓
  RAD21 expression change: ↑
  RAD51C expression change: ↓
  RHOH expression change: ↑*
  RRM1 expression change: ↓*
  RRM2 expression change: ↓*
  SEC61A1 expression change: ↑*
  SMC4 expression change: ↑
  STAT3 expression change: ↑
  TEAD3 expression change: ↓
  UBC expression change: ↑*
  XPC expression change: ↑
  ZNF330 expression change: ↓
[10]
  hTERT levels in MM patient samples after treatment: lower
